Test results as given in paper PMC6105804, “In Vitro and In Vivo Evaluation of APX001A/APX001 and Other Gwt1 Inhibitors against Cryptococcus” (Antimicrobial Agents and Chemotherapy, 2018).
In brackets after ≈: the same amount, converted by molar mass.

Experiments:
C. neoformans = system: C. neoformans; parameters: method as in PMID 15078612; conditions: U.S. isolates; cited from earlier work
C. neoformans strain H99 = test: Murine cryptococcal meningitis model with ABT, dose-response study; assay type: in vivo, Cryptococcus neoformans; conditions: control animals with daily 100-mg/kg ABT without an APX compound
Description: A dose-response study was performed with APX2096 and APX2097 to confirm the observed activity. In this study, QD doses of 7.5, 20, and 60 mg/kg were evaluated in conjunction with the administration of ABT. A 60-mg/kg dose QD without ABT was also evaluated as a control.
FIG 3 Dose-response of APX2096 and APX2097 in a murine model of cryptococcal meningitis in conjunction with ABT administration. ABT at 100 mg/kg was administered orally to male CD-1 mice at 2 h prior to each APX compound dose. Mice were injected with 4.8 × 10^4 CFU C. neoformans strain H99 per mouse via the lateral tail vein at time zero. Treatment with the APX compounds was initiated at 1 h postinfection by i.p. administration and continued for 7 days, with 100-mg/kg ABT being administered orally 2 h prior to each APX compound dose. The correction factors for prodrug potencies versus the potencies of the active moieties were similar enough such that the same factor (1.3) was used for all APX compounds. Fungal burden data were log10 transformed and evaluated using Kruskal-Wallis tests with Dunn's multiple-comparison test for post hoc analysis (Prism software, v5; GraphPad Software, Inc., San Diego, CA). […] A P value of ≤0.05 was considered statistically significant (*, P ≤ 0.05; **, P ≤ 0.01; ***, P ≤ 0.001). The 95% confidence interval (CI) is presented.
C. neoformans strain H99 was grown in yeast extract-peptone-dextrose broth at 30°C on a shaker (220 rpm) for 24 h, centrifuged (1,980 relative centrifugal force), and washed twice in phosphate-buffered saline (PBS), resuspended in PBS, and quantified by hemacytometric count. Male CD-1 mice were infected with ∼5 × 10^4 CFU per mouse via lateral tail vein injection of 100 μl. Mice were weighed, and treatment was begun within 1 h after infection. Treatments were administered daily for 7 days. Mice were weighed daily and observed for acute and chronic adverse symptoms. Mice were sacrificed on day 8, and the brain and left lung were homogenized and cultured for quantitative determination of the tissue burden (number of CFU per gram of tissue). Tissues were homogenized for 25 s in 1 ml phosphate-buffered saline using two 6.5-mm steel beads and a Mini-Beadbeater 16 apparatus (Biospec Products, Inc., Bartlesville, OK) and serially diluted in 10-fold steps. Aliquots (100 μl) of homogenate were plated and incubated for 3 to 7 days at 37°C. Fungal burden data were log10 transformed and evaluated using Kruskal-Wallis tests with Dunn's multiple-comparison test for post hoc analysis (Prism software, v5; GraphPad Software, Inc., San Diego, CA). A P value of ≤0.05 was considered statistically significant.

C. albicans 90028 = test: Broth microdilution susceptibility testing (CLSI M27-A3); assay type: cell-based, Candida albicans; conditions: Candida albicans, 90028, read-out: MIC, C. albicans 90028
Description: (§1) C. neoformans strains H99, DUMC 118.00, and DUMC 158.03 and C. gattii strains R272 and RSA-MW-3515 were obtained from Duke University. C. albicans 90028, A. fumigatus MYA3626, C. neoformans 14116, C. neoformans 76484, and the pathogenic Cryptococcus reference strains panel (ATCC MP-11) were obtained from the American Type Culture Collection (ATCC; Manassas, VA, USA). The ATCC MP-11 panel consists of strains representing eight molecular types and three subtypes of C. neoformans and C. gattii.
(§2) To establish the antimicrobial activity of the APX001A analogs, broth microdilution susceptibility testing was performed according to Clinical and Laboratory Standards Institute (CLSI) guidelines M27-A3 ([47]) for yeasts and M38-A2 for molds ([48]). APX001A and analogs were first diluted in DMSO to obtain intermediate dilutions. These were further diluted in microtiter plates to obtain a final concentration of 2 to 0.002 μg/ml. One microliter of DMSO was added to the no-drug control wells. The solutions were mixed on a plate shaker for 10 min, and the plates were incubated at 35°C for 40 to 48 h (C. albicans, A. fumigatus) and 72 h (C. neoformans). The minimum concentration that led to a 50% reduction in fungal growth compared to that for the control (determined with the aid of a reading mirror) was determined as the MIC for C. albicans and C. neoformans. The minimum concentration that led to the shortening of hyphae compared to the hyphal growth in DMSO control wells was determined as the minimum effective concentration (MEC) for A. fumigatus (as read for the echinocandins). The use of the MIC and MEC endpoints for APX001A (formerly E1210) against yeasts and molds, respectively, has been described previously ([19][–][21]). For the cryptococcal synergy studies, APX001A and APX2020 MIC values were read at 50% inhibition.

A. fumigatus MYA3626 = test: Broth microdilution susceptibility testing for molds (CLSI M38-A2); assay type: cell-based; conditions: Aspergillus fumigatus, MYA3626, read-out: MIC or MEC for A. fumigatus MYA3626
Description: as §1, §2

CC(=O)N1CCN(c2ccc(OCC3COC(Cn4ccnc4)(c4ccc(Cl)cc4Cl)O3)cc2)CC1 (stereo not drawn) [ketoconazole]
MIC90 (C. neoformans): 0.06 mg/L (≈ 0.113 µM)

CCC(C)n1ncn(-c2ccc(N3CCN(c4ccc(OCC5COC(Cn6cncn6)(c6ccc(Cl)cc6Cl)O5)cc4)CC3)cc2)c1=O (stereo not drawn) [itraconazole]
MIC90 (C. neoformans): 0.125 mg/L (≈ 0.177 µM)

Nn1nnc2ccccc21 [ABT, 1-Aminobenzotriazole, reference compound]
mean counts in brain tissue (C. neoformans strain H99): 8.07 ± 0.28 log10 CFU/g
mean counts in lung tissue (C. neoformans strain H99): 7.04 ± 0.34 log10 CFU/g

CC[C@H](C)C[C@H](C)CCCCCCCCC(=O)N[C@H]1C[C@@H](O)[C@@H](NCCN)NC(=O)[C@@H]2[C@@H](O)CCN2C(=O)[C@H]([C@H](O)CCN)NC(=O)[C@H]([C@H](O)[C@@H](O)c2ccc(O)cc2)NC(=O)[C@@H]2C[C@@H](O)CN2C(=O)[C@H]([C@@H](C)O)NC1=O [CAS, caspofungin, reference compound]
MIC (C. albicans 90028): 0.5 mg/L
MIC (A. fumigatus MYA3626): 0.25 mg/L
